Measurements taken from patent publication US6365652B2, “Trisaryl-1,3,5-triazine ultraviolet light absorbers” (Ciba Specialty Chemicals Corporation, priority 1997, dated 2002).
One block for each compound: values may come before it.

How the values were obtained:
[1] = Solubility in solvent mixture (1:1:1 xylenes:MAK:PM acetate); assay type: physicochemical
From the text: Compound E (the disubstituted amide) was compared against Compound B (the monosubstituted amide) for solubility in a 1:1:1 mixture of xylenes:methyl amyl ketone (MAK):propylene glycol methyl ether acetate (PM acetate), which is a typical coatings solvent mixture.

[2] = Compatibility with acrylic urethane Component I (polyol component of two-component clearcoat); assay type: physicochemical; conditions: for Compatibility in fully formulated coating: after addition of DESMODUR N-3390 and 17 parts solvent mixture
From the text: Compound E was again compared against Compound B, this time for compatibility in the following resin formulation which is the polyol component of a typical two-component acrylic urethane clearcoat formulation:
100 parts Acrylic Resin—JONCRYL® CDX-588 (70% Solids) (S.C. Johnson & Son, Inc., Racine, Wis.
5 parts—1 part Dibutyltin Dilaurate (T-12, Air Products, Allentown, Pa.)
45 parts Solvent Mixture (1:1:1 xylenes:MAK:PM Acetate)
1 part Hindered Amine Light Stabilizer (SANDUVOR® S-3055, Clariant Corp., Charlotte, N.C.).

[3] = Bonding/migration in acrylic/melamine clearcoat on RIM substrate, microtome UV depth profile at 340 nm; conditions: 3% on total resin solids, cure 30 min at 135° C.
Method: Compound E was investigated to determine whether it forms a chemical bond with the acrylic/melamine resin matrix during curing. For this purpose, it was added to a clearcoat formulation and coated onto a plastic substrate, as described below. Non-bondable UV absorbers readily migrate from clearcoats into plastic substrates upon curing the coating. An absorber which bonds to the matrix should not migrate into the plastic substrate to any significant extent.
The acrylic/melamine resin formulation utilized was as follows: […]
40.6 g JONCRYL® 510 acrylic resin (S.C. Johnson, Inc. Racine, Wis.)
17.5 g CYMEL® 303 crosslinker (Cytec Industries, Inc., West Paterson, N.J.)
0.52 g CYCAT® 4040 catalyst (Cytec Industries, Inc., West Paterson, N.J.)
0.50 g DC 57 flow control agent […]
After cure, the coating and part of the substrate were microtomed into 10 μm thick slices parallel to the coating surface. […] Each microtomed slice was mounted between two microscope slides and its UV absorption spectrum measured using a Perkin-Elmer Lambda 2 spectrophotometer. The absorbance per micrometer sample thickness was determined at the prominent 340 nm absorption band intrinsic to this UVA.
The results of the UV analysis were plotted as a function of depth. […] By measuring the area under the curve, the quantity of Compound E remaining in the coatings and the fraction that migrated into the substrates were estimated. […]

[4] = QUV accelerated weathering (UVB-313 bulbs) of acrylic urethane clear coat; conditions: Example 10
From the text: Compounds D and E were formulated in clear coatings which were applied to panels for accelerated weathering testing as follows. Compound D or E (1% or 2% based on total resin solids) and/or SANDUVOR® S-3055 HALS-type stabilizer (1% based on total resin solids) were predissolved in the solvent mixture (to a 5-10% solids level) and added to the clear acrylic urethane formulation given in Table 3 below. Components I and II were mixed just before use. Cold roll steel panels measuring 4″×12″ and precoated with an electro-coat primer ED505A and a white polyester acrylic melamine base-coat #542AB839, obtained from ACT Laboratories, Inc. (Hillsdale, Mich.) were coated with the clear coating formulations of Table 3. The draw-down technique, using WC-60 WireCators™ (Leneta Co., Hohokus, N.J.), was used to apply the clear coat to the pre-coated panels. The clear coats were allowed to flash for 10 min at ambient temperature and cured for 30 min at 135° C.
Accelerated weathering was carried out on the clear coating formulations using a QUV device equipped with UVB-313 fluorescent bulbs. […] Specular properties such as gloss ([…], ASTMD523) and distinctness of image (“DOI”) (Dorigon Meter D47R-6FT, Hunter Associate Laboratory) and yellowing (“Delta b”) were measured as a function of weathering time. […]

[5] = 1 wt % on total resin solids, 5° C.
[6] = 1 wt % on total resin solids, 23° C.
[7] = 1 wt % on total resin solids, 60° C.

- Solubility ([1]; 5 wt %, 5° C.): No
- Solubility ([1]; 5 wt %, 23° C.): No
- Solubility ([1]; 5 wt %, 50° C.): did not dissolve
- Solubility ([1]; 5 wt %, 50° C., listed as CEX1 (B)): No
- Compatibility [2, 5]: not compatible
- Compatibility ([2]; 1 wt % on total resin solids, 5° C., listed as CEX1 (B)): No
- Compatibility [2, 6]: not compatible
- Compatibility ([2]; 1 wt % on total resin solids, 23° C., listed as CEX1 (B)): No
- Compatibility [2, 7]: not compatible
- Compatibility ([2]; 1 wt % on total resin solids, 60° C., listed as CEX1 (B)): No
- Compatibility in fully formulated coating [2]: did not result in the dissolution
Compound: Cc1ccc(-c2nc(-c3ccc(C)cc3C)nc(-c3ccc(OCC(=O)NCCO)cc3O)n2)c(C)c1 [Compound B, 4-[4,6-Bis(2′4′-dimethylphenyl)-1,3,5-triazin-2-yl]-3-hydroxyphenoxyacetic acid, N-(2-hydroxyethyl)amide, reference compound]

- Solubility ([1]; 5 wt %, 5° C.): Yes
- Solubility ([1]; 5 wt %, 23° C.): Yes
- Solubility ([1]; 5 wt %, 50° C.): Yes
- Solubility ([1]; 10 wt %, 5° C.): did not crystallize out of solution
- Solubility ([1]; 10 wt %, 5° C., listed as EX1 (E)): Yes
- Solubility ([1]; 10 wt %, 23° C.): Yes
- Solubility ([1]; 10 wt %, 50° C.): Yes
- Dissolution in the solvent mixture ([1]; 10 wt %, temperature not stated): fully dissolved
- Compatibility [2, 5]: Yes
- Compatibility [2, 6]: Yes
- Compatibility [2, 7]: Yes
- Compatibility ([2]; 2 wt % on total resin solids, 5° C.): Yes
- Compatibility ([2]; 2 wt % on total resin solids, 23° C.): Yes
- Compatibility ([2]; 2 wt % on total resin solids, 60° C.): Yes
- Compatibility with the resin component ([2]; 5° C., concentration not given): compatible
- Fraction of added compound remaining in the coating [3]: about 95%
- Lifetime of coating compositions (percent gloss retention, percent DOI retention, delta b) compared to the unstabilized composition [4]: extend the lifetime
Compound: CCCCN(CCO)C(=O)COc1ccc(-c2nc(-c3ccc(C)cc3C)nc(-c3ccc(C)cc3C)n2)c(O)c1 [Compound E, 4-[4,6-Bis(2′4′-dimethylphenyl)-1,3,5-triazin-2-yl]-3-hydroxyphenoxyacetic acid, N-(n-butyl)-N-(2-hydroxyethyl)amide]
- Compatibility in fully formulated coating [2]: nor did it adversely affect the compatibility
